As a reminder, the GI50 is the concentration giving 50% growth inhibition. The IC50 is the concentration that gives 50% inhibition.

For one test, the system named is MDA-MB-231 cells. Put plainly: MDA-MB-231 proliferation assay. It is filed as cell-based. Particulars: Homo sapiens, 72 hours, YO-PRO-1 readout. As for the experimental part:
MDA-MB-231 Proliferation Assay
MDA-MB-231 cells were cultivated in DMEM High Glucose (4.5 g/L) with L-Glutamine (BioConcept, cat. no. 1-26F03-I) supplemented with 1% Na-pyruvate (Sigma, cat. no. S8636), 1% Penicillin-Streptomycin (BioConcept, cat. no. 4-01F00H), and 10% FBS (Sigma, cat. no. F9665) using standard techniques. Cells were seeded in black, clear-bottom 384 well plates for tissue culture (Greiner Bio-One, cat. no. 781091) at a density of 750 cells per well in 20 μL medium and the plates were incubated overnight at 37° C. with 5% CO2 prior to treatment. Experimental compounds were serially diluted in DMSO to 200× the desired final concentrations. The solutions were then diluted 1:40 with culture medium and 5 μL aliquots were mixed into the wells containing the cells. The final concentration of DMSO was 0.5%. The plates were incubated for 72 hours and cell numbers were then measured using YO-PRO™-1 Iodide (ThermoFisher Scientific, cat. no. Y3603) essentially as recommended by the manufacturer. […] The plates were incubated at room temperature in the dark for 30 minutes. Fluorescence intensity signals were then measured on a Synergy 4 reader (BioTek) using 485/20 nm and 530/25 nm filters for the excitation and emission, respectively. Relative proliferation values were calculated by normalizing the raw data using DMSO-treated cells (100% proliferation) and the signals obtained from cells that were evaluated at the time of compound addition (0% proliferation). The concentration-response data were fitted to a sigmoidal 4-parameter logistic model with the maximum constrained to 100%.

The target in a further test is T1, recombinant human CLK3 (Homo sapiens, UniProt P49761).
T1 construct: purchased Thermo Fisher Scientific PV3826
T1 sequence (P49761 whole entry): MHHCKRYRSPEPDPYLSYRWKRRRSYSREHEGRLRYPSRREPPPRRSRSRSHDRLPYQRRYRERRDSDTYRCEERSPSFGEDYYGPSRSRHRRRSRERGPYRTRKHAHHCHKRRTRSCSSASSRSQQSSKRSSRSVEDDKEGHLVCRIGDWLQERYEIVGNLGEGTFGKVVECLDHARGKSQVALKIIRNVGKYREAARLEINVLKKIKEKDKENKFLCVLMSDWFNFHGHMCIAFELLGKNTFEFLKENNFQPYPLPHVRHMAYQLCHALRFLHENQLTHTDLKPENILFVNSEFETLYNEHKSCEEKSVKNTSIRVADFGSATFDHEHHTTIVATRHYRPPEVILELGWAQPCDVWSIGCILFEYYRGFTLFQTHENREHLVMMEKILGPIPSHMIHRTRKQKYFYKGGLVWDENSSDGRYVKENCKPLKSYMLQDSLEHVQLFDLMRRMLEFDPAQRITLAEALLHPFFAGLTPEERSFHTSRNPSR
Put plainly: CLK3 kinase assay (LANCE Ultra). The conditions noted are these: 0.5 nM CLK3, 300 μM ATP, 3 hours at 30° C. The test is classed as biochemical. As for the experimental part: CLK3 kinase activity was measured using the LANCE® Ultra technology (PerkinElmer) essentially as recommended by the supplier. Briefly, 2.5 μL of test sample at 4× the desired final concentration in 4% DMSO were dispensed into white, low volume, round bottom, 384 well plates (Corning, cat. no. 4512). 5 μL of a mixture containing recombinant human CLK3 (Thermo Fisher Scientific, cat. no. PV3826) and the labeled peptide substrate ULight™-CREBtide (PerkinElmer, cat. no. TRF0107) prepared in 1.33× kinase buffer (Thermo Fisher Scientific, cat. no. PV3189) were then added. Finally, the reactions were started by adding 2.5 μL of a 4× solution of ATP in kinase buffer. The plates were sealed with adhesive foils and incubated for 3 hours at 30° C. in the dark. The final concentrations of CLK3, ULight™—CREBtide, and ATP were 0.5 nM, 50 nM, and 300 μM, respectively. 5 μL of 40 mM EDTA were then added to terminate the reactions. The Eu-anti-phospho-CREB antibody (PerkinElmer, cat. no. TRF0200) diluted in LANCE® detection buffer (PerkinElmer, cat. no. CR97) was then added to a final concentration of 2 nM and the reactions were incubated for 1 hour at room temperature in the dark. The signals were measured using a Synergy 4 reader (BioTek) with a 320/80 nm filter for the excitation and 620/10 nm and 665/8 nm filters for the donor and acceptor emission, respectively. […] IC50 values were calculated by fitting the concentration-response data to a sigmoidal 4-parameter logistic model.
(TR-FRET usually uses a lanthanide donor and a delayed reading to cut background.)

On to `CO/N=C1\c2cc(C[C@H]3CC[C@@H](N)CC3)ccc2-c2ncnc(N)c2C1(C)C` [Example 75, (6Z)-8-[(cis-4-aminocyclohexyl)methyl]-6-methoxyimino-5,5-dimethyl-benzo[h]quinazolin-4-amine], for which the GI50 in the test with MDA-MB-231 cells came to 472 nM. For the same compound, the IC50 on recombinant human CLK3 turned out to be 3.4 nM.
In the case of `CO/N=C1/c2c(ccc(OC)c2N)-c2ncnc(N)c2C1(C)C` [Example 49, (6E)-8-methoxy-6-methoxyimino-5,5-dimethyl-benzo[h]quinazoline-4,7-diamine], the GI50 in the test on MDA-MB-231 cells was over 2000 nM. Besides, at recombinant human CLK3, the IC50 was found to be 14.4 nM.
Taken in the same sequence, the figures for `CO/N=C1\c2c(ccc(OC)c2Cl)-c2ncnc(N)c2C1(C)C` [Example 43, (6Z)-7-chloro-8-methoxy-6-methoxyimino-5,5-dimethyl-benzo[h]quinazolin-4-amine] were over 2000 nM and 90.5 nM.
Taken in the same sequence, the figures for `CC1(C)/C(=N/OCCCCF)c2cc(O[C@H]3CC[C@@H](N)CC3)ccc2-c2ncnc(N)c21` [Example 113, (6Z)-8-(cis-4-aminocyclohexoxy)-6-(4-fluorobutoxyimino)-5,5-dimethyl-benzo[h]quinazolin-4-amine] were 167 nM and 21.2 nM.
Taken in the same sequence, the figures for `CC1(C)/C(=N/OCC#N)c2cc(O[C@H]3CC[C@H](N)CC3)ccc2-c2ncnc(N)c21` [Example 22, [(Z)-[4-amino-8-(trans-4-aminocyclohexoxy)-5,5-dimethyl-benzo[h]quinazolin-6-ylidene]amino]oxyacetonitrile] were 691 nM and 34.5 nM.
`COCCO/N=C1\c2cc(O[C@H]3CC[C@@H](N)CC3)ccc2-c2ncnc(N)c2C12CCCC2` [Example 100, (6Z)-8-(cis-4-aminocyclohexoxy)-6-(2-methoxyethoxyimino)spiro[benzo[h]quinazoline-5,1′-cyclopentane]-4-amine]: the GI50 in the test on MDA-MB-231 cells is 10.5 nM. Besides, the 50% inhibitory concentration (IC50) on recombinant human CLK3 is 3.7 nM.
Consider `CNC(=O)CO/N=C1\c2cc(O[C@H]3CC[C@H](N)CC3)ccc2-c2ncnc(N)c2C1(C)C` [Example 33, 2-[(Z)-[4-amino-8-(trans-4-aminocyclohexoxy)-5,5-dimethyl-benzo[h]quinazolin-6-ylidene]amino]oxy-N-methyl-acetamide], for which the GI50 in the test on MDA-MB-231 cells stood at 1190 nM. In addition, the IC50 on recombinant human CLK3 was found to be 23.3 nM.
For the compound `COCCO/N=C1\c2cc(Br)ccc2-c2ncnc(N)c2C1(C)C` [Example 80, (6Z)-8-bromo-6-(2-methoxyethoxyimino)-5,5-dimethyl-benzo[h]quinazolin-4-amine], the GI50 in the test with MDA-MB-231 cells was over 2000 nM. Moreover, on recombinant human CLK3, the IC50 was 51.5 nM.
The matching figures for `CO/N=C1/c2c(ccc(OC)c2Cl)-c2ncnc(N)c2C1(C)C` [Example 48, (6E)-7-chloro-8-methoxy-6-methoxyimino-5,5-dimethyl-benzo[h]quinazolin-4-amine]: over 2000 nM and 4.9 nM.
`CC1(C)/C(=N/OCC(N)=O)c2cc(O[C@H]3CC[C@H](N)CC3)ccc2-c2ncnc(N)c21` [Example 32, 2-[(Z)-[4-amino-8-(trans-4-aminocyclohexoxy)-5,5-dimethyl-benzo[h]quinazolin-6-ylidene]amino]oxyacetamide]: the GI50 with MDA-MB-231 cells came out at 1490 nM. Moreover, the IC50 at recombinant human CLK3 was 29.6 nM.
The matching figures for `CO/N=C1\c2cc(OC3CCNCC3)ccc2-c2ncnc(N)c2C1(C)C` [Example 66, (6Z)-6-methoxyimino-5,5-dimethyl-8-(4-piperidyloxy)benzo[h]quinazolin-4-amine]: 1750 nM and 13 nM.
Taken in the same sequence, the figures for `C[C@@H](O)CO/N=C1\c2cc(O[C@H]3CC[C@H](N)CC3)ccc2-c2ncnc(N)c2C1(C)C` [Example 78, (2R)-1-[(Z)-[4-amino-8-(trans-4-aminocyclohexoxy)-5,5-dimethyl-benzo[h]quinazolin-6-ylidene]amino]oxypropan-2-ol] were over 2000 nM and 66.3 nM.
